Data published in patent publication US20260049068A1, “Substituted Tetrazolyl Compounds Useful as T Cell Activators” (BRISTOL-MYERS SQUIBB COMPANY, priority 2022, published 2026).

Assays:
[1] = target: DGKα-YFP in Jurkat cells (Homo sapiens (Human), UniProt P23743); test: In vitro DGKα translocation assay; assay type: cell-based; conditions: 1 hour at 37° C., top concentration 10 μM, read-out: DGKalpha Translocation EC50
Source text: Jurkat cells were transduced with lentiviral constructs overexpressing DGKα-YFP (N-terminal tagged), selected by puromycin, and were FACs sorted to establish stable lines expressing each isoform (Jurkat-DGKα-YFP=BXA-212700-01-001, Jurkat-DGKz-YFP=BXA-212701-01-001). Cell lines were maintained in growth media (RPMI supplemented with 10% FBS and pen/strep). All translocation assays were run in assay media (RPMI supplemented with 10% FBS and no antibiotics).
For translocation assays cells were plated onto Perkin Elmer CellCarrier-384 Ultra Microplates (Perkin Elmer cat #6057500) at a density of 30,000 cells/well, in a volume of 40 μL of assay media. Compounds were then transferred to the cells by an Echo Acoustic Liquid Handler (Echo 655). […] Treated cells were then incubated at 37° C. for 1 hour. Cells were then fixed with 4% formaldehyde (Thermo cat #28906) for 15 minutes, centrifuged briefly to increase cell retention (250 rpm for 5 minutes), and then washed 3× with 50 μL PBS. Cells were then stained with Hoechst, and washed 2× with 50 ul PBS. Next, 50 μL PBS was added to each well, plates were sealed, and plates were imaged on an Opera Phenix High Content screening system. Imaging was done with the 40× water objective. The YFP channel was set at 100% power for […], 10 regions/well were imaged and analyzed. Data analysis was done with Columbus Image Analysis software (Perk-in Elmer).

[2] = target: Near full length human DGKα(S9-S727) (Homo sapiens (Human), UniProt P23743); test: DGKα (Near Full Length) ADP Glo assay; assay type: biochemical; conditions: extruded liposomes 5% or 10% DAG, 150 μM ATP, 5 nM enzyme; read-out: Near Full Length DGKalpha ADPGLO IC50
Method: The reactions were carried out at 150 μM ATP.
Luminescence was recorded using an EnVision microplate reader.

[3] = target: Full length human DGKα (Homo sapiens (Human), UniProt P23743);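 also: ADP-Glo luminescence assay of ADP formed by 5 nM full-length DGKα on extruded PS/DAG/PC liposomes with 150 µM ATP, 1 h reaction, 11-point inhibitor titration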
Chain of Full length human DGKα (P23743 other isoform, or with tags, fused parts or gaps): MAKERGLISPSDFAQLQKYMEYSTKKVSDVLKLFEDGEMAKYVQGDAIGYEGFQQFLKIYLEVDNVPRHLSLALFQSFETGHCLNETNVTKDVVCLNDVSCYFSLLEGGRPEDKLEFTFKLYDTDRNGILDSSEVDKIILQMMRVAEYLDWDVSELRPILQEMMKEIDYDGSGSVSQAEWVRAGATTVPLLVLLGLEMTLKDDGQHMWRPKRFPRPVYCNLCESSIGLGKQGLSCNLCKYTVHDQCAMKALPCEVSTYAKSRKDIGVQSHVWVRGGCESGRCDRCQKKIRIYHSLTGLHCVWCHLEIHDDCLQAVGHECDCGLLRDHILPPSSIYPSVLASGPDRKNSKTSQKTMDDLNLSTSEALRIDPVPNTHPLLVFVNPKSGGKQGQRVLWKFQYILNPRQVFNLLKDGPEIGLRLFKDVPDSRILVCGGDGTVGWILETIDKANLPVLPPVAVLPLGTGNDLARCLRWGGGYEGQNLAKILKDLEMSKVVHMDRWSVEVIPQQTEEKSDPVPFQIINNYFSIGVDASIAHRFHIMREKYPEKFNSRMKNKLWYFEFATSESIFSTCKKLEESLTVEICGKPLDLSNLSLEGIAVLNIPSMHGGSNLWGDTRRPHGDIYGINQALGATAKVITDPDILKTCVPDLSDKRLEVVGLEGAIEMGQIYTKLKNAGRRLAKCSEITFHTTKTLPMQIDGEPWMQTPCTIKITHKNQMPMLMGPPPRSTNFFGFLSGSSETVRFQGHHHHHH
Method: The DGKα (Full Length and Near Full Length) ADP Glo assays were performed using an extruded liposome prep at either 5% DAG or 10% DAG. The Enzymatic reactions were carried out in 50 mM MOPS pH 7.5, 100 mM NaCl, 10 mM MgCl2, 1 μM CaCl2, and 1 mM DTT (assay buffer). The lipid substrate concentrations were 1.9 mM PS, either 0.25 mM DAG (5% liposome prep) or 0.5 mM DAG (10% liposome prep), and 2.7 mM PC for the extruded liposome reactions. The reactions were carried out at 150 μM ATP. The enzyme concentrations for the DGKα(Near Full Length) and DGKα(FL) were 5 nM.
The compound inhibition studies were carried out as follows: 25 nL droplets of each test compound (11 point, 3-fold dilution series for each compound) solubilized in DMSO were transferred to wells of a white 1536 well plate (Corning 3725). A 5 mL enzyme/substrate (substrate being the 5× or 10× liposome preparation) solution at 2× final reaction concentrations was prepared by combining 5 ml of the extruded liposome preparation with 10 nM (2× final) DGKα(Near Full Length) or DGKα(Full Length) prepared as described below) and incubated at room temperature for 10 minutes. Next, 1 μL of the 2× enzyme/substrate solution was added to wells containing the test compound and reactions were initiated with the addition of 1 μL 300 uM ATP. Substrate only was added to DMSO only wells for background measurements. The reactions were allowed to proceed for 1 hr, after which 2 μL Glo Reagent (Promega V9101) was added and incubated for 40 minutes. Next, 4 μL Kinase Detection Reagent was added and incubated for 30 minutes. Luminescence was recorded using an EnVision microplate reader. […] The compounds were evaluated at 11 concentrations to determine IC50.

Chain of Near full length human DGKα(S9-S727) (P23743 9-727): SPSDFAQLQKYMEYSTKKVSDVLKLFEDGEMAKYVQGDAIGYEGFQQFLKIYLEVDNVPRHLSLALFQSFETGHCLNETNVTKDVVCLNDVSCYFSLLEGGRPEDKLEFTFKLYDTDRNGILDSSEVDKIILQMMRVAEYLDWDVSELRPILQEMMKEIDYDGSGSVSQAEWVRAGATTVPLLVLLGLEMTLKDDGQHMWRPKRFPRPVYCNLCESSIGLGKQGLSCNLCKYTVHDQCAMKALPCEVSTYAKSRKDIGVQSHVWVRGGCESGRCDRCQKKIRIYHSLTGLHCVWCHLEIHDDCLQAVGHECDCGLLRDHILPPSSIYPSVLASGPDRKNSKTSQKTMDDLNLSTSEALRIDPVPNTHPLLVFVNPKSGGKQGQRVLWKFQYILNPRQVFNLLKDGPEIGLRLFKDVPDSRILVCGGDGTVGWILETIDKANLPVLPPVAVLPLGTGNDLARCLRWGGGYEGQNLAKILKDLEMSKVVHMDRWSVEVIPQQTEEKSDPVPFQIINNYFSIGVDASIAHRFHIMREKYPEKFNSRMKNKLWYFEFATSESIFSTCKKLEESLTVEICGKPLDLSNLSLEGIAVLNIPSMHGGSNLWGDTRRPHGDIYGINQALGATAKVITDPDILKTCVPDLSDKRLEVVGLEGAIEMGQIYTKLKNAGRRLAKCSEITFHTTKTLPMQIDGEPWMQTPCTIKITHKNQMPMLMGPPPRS
Chain of DGKα-YFP in Jurkat cells (P23743 whole entry, canonical isoform): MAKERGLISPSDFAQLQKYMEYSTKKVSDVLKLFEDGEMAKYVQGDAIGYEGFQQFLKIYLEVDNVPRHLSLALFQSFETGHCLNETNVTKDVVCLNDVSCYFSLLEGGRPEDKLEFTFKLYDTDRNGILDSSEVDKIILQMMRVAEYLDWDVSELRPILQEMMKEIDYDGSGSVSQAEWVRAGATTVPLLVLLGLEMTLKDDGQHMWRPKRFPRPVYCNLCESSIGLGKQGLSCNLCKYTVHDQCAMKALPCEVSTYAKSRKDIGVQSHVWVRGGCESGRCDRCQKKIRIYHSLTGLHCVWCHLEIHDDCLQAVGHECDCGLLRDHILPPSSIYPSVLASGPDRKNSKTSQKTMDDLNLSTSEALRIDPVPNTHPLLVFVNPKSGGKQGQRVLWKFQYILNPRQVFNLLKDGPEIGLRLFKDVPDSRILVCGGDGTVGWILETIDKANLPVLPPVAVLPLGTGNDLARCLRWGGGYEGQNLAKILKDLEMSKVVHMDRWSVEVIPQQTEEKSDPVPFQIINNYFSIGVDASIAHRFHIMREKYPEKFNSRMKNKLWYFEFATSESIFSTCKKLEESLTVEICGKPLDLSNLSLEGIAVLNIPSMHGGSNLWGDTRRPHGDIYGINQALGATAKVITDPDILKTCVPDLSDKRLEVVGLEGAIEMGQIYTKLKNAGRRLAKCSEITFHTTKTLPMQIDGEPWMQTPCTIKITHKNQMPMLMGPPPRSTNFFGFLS

Row | Structure (SMILES) | EC50 [1] [µM] | IC50 [2] [µM] | IC50 [3] [µM]
1 | CC1CCC(N(C)Cc2nnnn2-c2cccc([N+](=O)[O-])c2)CC1 (stereo not drawn) [Example 2, N,4-dimethyl-N-((1-(3-nitrophenyl)-1H-tetrazol-5-yl)methyl)cyclohexan-1-amine] | 0.3 |  | 
2 | CN(Cc1nnnn1-c1ccc(C(F)(F)F)c(C#N)c1)C1CCCCC1 [Example 4, 5-(5-((cyclohexyl(methyl)amino)methyl)-1H-tetrazol-1-yl)-2-(trifluoromethyl)benzonitrile] | 0.82 | 0.28 | 0.027
3 | C=CCN(Cc1nnnn1-c1ccc(Cl)c(C#N)n1)C1CCCCC1 [Example 17, 6-(5-((allyl (cyclohexyl)amino)methyl)-1H-tetrazol-1-yl)-3-chloropicolinonitrile] | 0.47 |  | 
4 | CN(Cc1nnnn1-c1cc(C#N)cc([N+](=O)[O-])c1)C1CCCCC1 [Example 27, 3-(5-((cyclohexyl(methyl)amino)methyl)-1H-tetrazol-1-yl)-5-nitrobenzonitrile] | 0.49 |  | 
5 | CN(Cc1nnnn1-c1ccc(Cl)cc1C#N)C1CCCCC1 [Example 30, 5-chloro-2-(5-((cyclohexyl(methyl)amino)methyl)-1H-tetrazol-1-yl)benzonitrile] | > 10 |  | 
6 | COc1ccc(-n2nnnc2CN(C)C2CCCCC2)cc1 [Example 31, N-((1-(4-methoxyphenyl)-1H-tetrazol-5-yl)methyl)-N-methylcyclohexanamine] |  |  | 56
7 | COC(=O)c1cccc(-n2nnnc2CN(C)C2CCCCC2)c1 [Example 33, methyl 3-(5-((cyclohexyl(methyl)amino)methyl)-1H-tetrazol-1-yl)benzoate] |  |  | > 240
8 | CN(Cc1nnnn1-c1cccc(C(=O)O)c1)C1CCCCC1 [Example 34, 3-(5-((cyclohexyl (methyl)amino)methyl)-1H-tetrazol-1-yl)benzoic acid] |  |  | > 81
9 | O=[N+]([O-])c1cccc(-n2nnnc2CN(CCO)C2CCCCC2)c1 [Example 43, 2-(cyclohexyl((1-(3-nitrophenyl)-1H-tetrazol-5-yl)methyl)amino)ethan-1-ol] |  |  | 72
10 | CN(Cc1nnnn1-c1cc(C#N)c(=O)n(C)c1)C1CCCCC1 [Example 48, 5-(5-((cyclohexyl(methyl)amino)methyl)-1H-tetrazol-1-yl)-1-methyl-2-oxo-1,2-dihydropyridine-3-carbonitrile] |  |  | 56
11 | CC1CCC(C)N1Cc1nnnn1-c1ccc(Cl)c(C#N)c1 (stereo not drawn) [Example 50, 2-chloro-5-(5-((2,5-dimethylpyrrolidin-1-yl)methyl)-1H-tetrazol-1-yl)benzonitrile] |  |  | 54
12 | N#Cc1nc(-n2nnnc2CN(CCCNC(=O)c2ccccc2)C2CCCCC2)ccc1Cl [Example 54, N-(3-(((1-(5-chloro-6-cyanopyridin-2-yl)-1H-tetrazol-5-yl)methyl)(cyclohexyl)amino)propyl)benzamide] |  |  | 70
13 | C[C@]1(O)CC[C@@H](N(Cc2nnnn2-c2ccc(Cl)c(C#N)n2)C2CC2)CC1 [Example 59, 3-chloro-6-(5-((cyclopropyl((1s,4s)-4-hydroxy-4-methylcyclohexyl)amino)methyl)-1H-tetrazol-1-yl)picolinonitrile] |  |  | 180
14 | CC(C)N(C)Cc1nnnn1-c1ccc(Cl)c(C#N)n1 [Example 60, 3-chloro-6-(5-((isopropyl(methyl)amino)methyl)-1H-tetrazol-1-yl)picolinonitrile] |  |  | 67
15 | N#Cc1nc(-n2nnnc2CN(CCO)C2CCCCC2)ccc1Cl [Example 62, 3-chloro-6-(5-((cyclohexyl(2-hydroxyethyl)amino)methyl)-1H-tetrazol-1-v) picolinonitrile] |  |  | 110

Continued, values first:

Row | EC50 [1] [µM] | IC50 [2] [µM] | IC50 [3] [µM] | Structure (SMILES)
16 | 1.2 | 1.4 | 1.1 | CCCCN(Cc1nnnn1-c1ccc(Cl)c(C#N)c1)C1CCCCC1 [Example 5, 5-(5-((butyl(cyclohexyl)amino)methyl)-1H-tetrazol-1-yl)-2-chlorobenzonitrile]
17 | 0.19 | 0.1 | 0.11 | C=CCN(Cc1nnnn1-c1ccc(Cl)c(C#N)c1)C1CCCCC1 [Example 6, 5-(5-((allyl(cyclohexyl)amino)methyl)-1H-tetrazol-1-yl)-2-chlorobenzonitrile]
18 | > 10 | 3.4 | 4.7 | N#Cc1cc(-n2nnnc2CN(CCO)C2CCCCC2)ccc1Cl [Example 7, 2-chloro-5-(5-((cyclohexyl(2-hydroxyethyl)amino)methyl)-1H-tetrazol-1-yl)benzonitrile]
19 | 0.35 | 2.1 | 1.5 | CCCN(Cc1nnnn1-c1ccc(Cl)c(C#N)c1)C1CCCCC1 [Example 8, 2-chloro-5-(5-((cyclohexyl(propyl)amino)methyl)-1H-tetrazol-1-yl)benzonitrile]
20 | 1.2 | 3.2 | 5.3 | CC(C)CN(C)Cc1nnnn1-c1ccc(Cl)c(C#N)c1 [Example 9, 2-chloro-5-(5-((isobutyl(methyl)amino)methyl)-1H-tetrazol-1-yl)benzonitrile]
21 | 0.63 | 0.24 | 0.25 | N#Cc1cc(-n2nnnc2CN(CC2CC2)C2CCCCC2)ccc1Cl [Example 10, 2-chloro-5-(5-((cyclohexyl(cyclopropylmethyl)amino)methyl)-1H-tetrazol-1-yl)benzonitrile]
22 | > 10 | 8.6 | 8.8 | CC(C)N(C)Cc1nnnn1-c1ccc(Cl)c(C#N)c1 [Example 11, 2-chloro-5-(5-((isopropyl(methyl)amino)methyl)-1H-tetrazol-1-yl)benzonitrile]
23 | 1.7 | 11 | 7.9 | CC(C)N(Cc1nnnn1-c1ccc(Cl)c(C#N)c1)C1CCCCC1 [Example 12, 2-chloro-5-(5-((cyclohexyl(isopropyl)amino)methyl)-1H-tetrazol-1-yl)benzonitrile]
24 |  |  | 13 | CN(Cc1nnnn1-c1ccc([N+](=O)[O-])cc1)C1CCCCC1 [Example 32, N-methyl-N-((1-(4-nitrophenyl)-1H-tetrazol-5-yl)methyl)cyclohexanamine]
25 |  |  | 50 | Cc1cccc(-n2nnnc2CN(C)C2CCCCC2)c1 [Example 35, N-methyl-N-((1-(m-tolyl)-1H-tetrazol-5-yl)methyl)cyclohexanamine]
26 |  |  | 11 | CN(Cc1nnnn1-c1cccc(Cl)c1)C1CCCCC1 [Example 36, N-((1-(3-chlorophenyl)-1H-tetrazol-5-yl)methyl)-N-methylcyclohexanamine]
27 |  |  | 12 | CN(Cc1nnnn1-c1cccc(Br)c1)C1CCCCC1 [Example 45, N-((1-(3-bromophenyl)-1H-tetrazol-5-yl)methyl)-N-methylcyclohexanamine]
28 |  |  | 16 | CN(Cc1nnnn1-c1ccc(F)nc1)C1CCCCC1 [Example 46, N-((1-(6-fluoropyridin-3-yl)-1H-tetrazol-5-yl)methyl)-N-methylcyclohexanamine]
29 |  |  | 17 | CN(Cc1nnnn1-c1ccc(Cl)c(C(F)(F)F)c1)C1CCCCC1 [Example 49, N-((1-(4-chloro-3-(trifluoromethyl)phenyl)-1H-tetrazol-5-yl)methyl)-N-methylcyclohexanamine]
30 |  |  | 13 | CCOC(=O)C1CCC(N(Cc2nnnn2-c2ccc(Cl)c(C#N)c2)C2CC2)CC1 (stereo not drawn) [Example 51, ethyl 4-(((1-(4-chloro-3-cyanophenyl)-1H-tetrazol-5-yl)methyl)(cyclopropyl)amino) cyclohexane-1-carboxylate]
31 |  |  | 11 | N#Cc1cc(-n2nnnc2CN(CC(O)c2ccccc2)C2CCCCC2)ccc1Cl (stereo not drawn) [Example 52, 2-chloro-5-(5-((cyclohexyl(2-hydroxy-2-phenylethyl)amino)methyl)-1H-tetrazol-1-yl)benzonitrile]
32 |  |  | 15 | CCCN(Cc1nnnn1-c1ccc(Cl)c(C#N)n1)C1CCCCC1 [Example 53, 3-chloro-6-(5-((cyclohexyl(propyl)amino)methyl)-1H-tetrazol-1-yl)picolinonitrile]
33 |  |  | 46 | CC(C)N(Cc1nnnn1-c1ccc(Cl)c(C#N)n1)C1CCCCC1 [Example 55, 3-chloro-6-(5-((cyclohexyl(isopropyl)amino)methyl)-1H-tetrazol-1-yl)picolinonitrile]
34 |  |  | 11 | CCOC(=O)C1CCC(N(Cc2nnnn2-c2ccc(Cl)c(C#N)n2)C2CC2)CC1 (stereo not drawn) [Example 56, ethyl 4-(((1-(5-chloro-6-cyanopyridin-2-yl)-1H-tetrazol-5-yl)methyl)(cyclopropyl)amino) cyclohexane-1-carboxylate]
35 |  |  | 24 | CC(C)CN(C)Cc1nnnn1-c1ccc(Cl)c(C#N)n1 [Example 61, 3-chloro-6-(5-((isobutyl(methyl)amino)methyl)-1H-tetrazol-1-yl)picolinonitrile]
36 |  |  | 15 | CCCCN(Cc1nnnn1-c1ccc(Cl)c(C#N)n1)C1CCCCC1 [Example 63, 6-(5-((butyl(cyclohexyl)amino)methyl)-1H-tetrazol-1-yl)-3-chloropicolinonitrile]
